Activity calls are given as the source filed them. The rule behind the calls is not given here.
These compounds were tested against T1, Proto-oncogene tyrosine-protein kinase Src (Homo sapiens, UniProt P12931) (assay: Inhibition of GST-tagged c-Src preincubated for 5 mins measured after 30 mins).
T1 sequence (P12931 2-536 limits assumed): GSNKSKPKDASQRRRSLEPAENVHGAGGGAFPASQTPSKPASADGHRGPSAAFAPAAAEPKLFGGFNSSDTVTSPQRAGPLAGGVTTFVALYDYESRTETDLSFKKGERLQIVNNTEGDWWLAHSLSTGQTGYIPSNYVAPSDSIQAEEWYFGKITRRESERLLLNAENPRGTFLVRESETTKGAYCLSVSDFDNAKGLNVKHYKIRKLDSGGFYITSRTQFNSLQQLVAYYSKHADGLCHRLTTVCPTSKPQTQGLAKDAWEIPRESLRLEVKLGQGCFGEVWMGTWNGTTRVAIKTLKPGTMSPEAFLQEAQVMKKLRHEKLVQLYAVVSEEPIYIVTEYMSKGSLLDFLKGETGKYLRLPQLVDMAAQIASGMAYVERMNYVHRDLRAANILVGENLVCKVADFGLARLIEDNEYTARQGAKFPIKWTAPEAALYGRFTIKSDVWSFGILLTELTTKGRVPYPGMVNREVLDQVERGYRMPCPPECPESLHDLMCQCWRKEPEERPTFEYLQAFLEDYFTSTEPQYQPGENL

First: COc1cccc(O[C@@H]2O[C@H](CO)[C@@H](O)[C@H]2O)c1
Second: Cc1cccc(O[C@H]2O[C@H](CO)[C@@H](O)[C@H]2O)c1
The IC50 of the first is 4.7-fold lower: 95 µM for the first, 451 µM for the second.

Compared with `OC[C@H]1O[C@@H](Oc2ccc(O)cc2)[C@H](O)[C@@H]1O`, `Cc1ccc(O[C@@H]2O[C@H](CO)[C@@H](O)[C@H]2O)cc1` is 1.9-fold lower in IC50: 272 µM for the first, 143 µM for the second.

Going from `OC[C@H]1O[C@@H](Oc2cccc3ccccc23)[C@H](O)[C@@H]1O` to `OC[C@H]1O[C@H](Oc2cccc3ccccc23)[C@H](O)[C@@H]1O`, the IC50 falls from 1370 µM to 185 µM (7.4-fold). The second is the more potent here.

`OC[C@H]1O[C@H](Oc2ccc3ccccc3c2)[C@H](O)[C@@H]1O` and `OC[C@H]1O[C@@H](Oc2ccc3ccccc3c2)[C@H](O)[C@@H]1O` are within 1.5-fold of each other in IC50: 297 µM for the first, 225 µM for the second.

Compared with `OC[C@H]1O[C@@H](Oc2ccc(-c3ccccc3)cc2)[C@H](O)[C@@H]1O`, `COc1ccc(O[C@@H]2O[C@H](CO)[C@@H](O)[C@H]2O)cc1` is 3.9-fold higher in IC50: 125 µM for the first, 484 µM for the second. The first is the more potent here.

These compounds were tested against T1, Proto-oncogene tyrosine-protein kinase Src (assay: Inhibition of GST-tagged c-Src up to 100 uM preincubated for 5 mins measured after 30 mins).

`COc1ccc(O[C@H]2O[C@H](CO)[C@@H](O)[C@H]2O)cc1` was tested, and the inhibition was “inactive”.
For `OC[C@H]1O[C@H](Oc2ccc(-c3ccccc3)cc2)[C@H](O)[C@@H]1O`, the inhibition was “inactive”.
In the case of `OC[C@H]1O[C@H](Oc2ccc(O)cc2)[C@H](O)[C@@H]1O`, the inhibition is reported as “inactive”.
With `COc1cccc(O[C@H]2O[C@H](CO)[C@@H](O)[C@H]2O)c1` the inhibition was “inactive”.
